Data on eight compounds can be found in ChEMBL document CHEMBL1157778, “Frontal affinity chromatography-mass spectrometry useful for characterization of new ligands for GPR17 receptor” (J Med Chem, 2010).

Common to all, as to assay type: functional, cell-based
The target in assay [1] is T1, Uracil nucleotide/cysteinyl leukotriene receptor (Homo sapiens, UniProt Q13304). The assay can be described thus: Antagonist activity at human GPR17 expressed in human 1321N1 cells assessed as inhibition of UDP-glucose-induced [35S]GTPgammaS binding after 30 mins by rapid filtration assay.
T1 sequence (Q13304 whole entry): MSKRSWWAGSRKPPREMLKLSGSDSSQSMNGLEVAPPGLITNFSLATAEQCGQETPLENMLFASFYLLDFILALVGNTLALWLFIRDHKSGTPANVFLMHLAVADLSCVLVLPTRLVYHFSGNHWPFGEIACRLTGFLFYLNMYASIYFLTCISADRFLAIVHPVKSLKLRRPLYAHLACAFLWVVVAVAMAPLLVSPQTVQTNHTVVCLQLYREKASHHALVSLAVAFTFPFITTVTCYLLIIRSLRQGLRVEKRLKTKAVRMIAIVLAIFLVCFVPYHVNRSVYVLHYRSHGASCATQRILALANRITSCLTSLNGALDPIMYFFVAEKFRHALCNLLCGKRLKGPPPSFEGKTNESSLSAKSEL
Assay [2] addresses T1, Uracil nucleotide/cysteinyl leukotriene receptor. Put plainly: Agonist activity at human GPR17 expressed in human 1321N1 cells assessed as induction of [35S]GTPgammaS binding after 30 mins by rapid filtration assay. (In general: GTPγS resists hydrolysis and so accumulates on activated G proteins.)
Assay [3] can be described thus: Antagonist activity at human GPR17 R255I mutant expressed in human 1321N1 cells assessed as inhibition of UDP-glucose-induced [35S]GTPgammaS binding after 30 mins by rapid filtration assay.
A short description of assay [4]: Agonist activity at human GPR17 R255I mutant expressed in human 1321N1 cells assessed as induction of [35S]GTPgammaS binding after 30 mins by rapid filtration assay.

A word on the IC50: it is the midpoint of a concentration-inhibition curve. Turning to `CNc1ncnc2c1ncn2[C@@H]1O[C@H](COP(=O)(O)OP(=O)(O)OP(=O)(O)O)[C@@H](O)[C@H]1O`, the IC50 in assay [1] stood at 112 nM.
As usually defined, the EC50 is the concentration that produces a half-maximal response. In the case of `CNc1nc(Cl)nc2c1ncn2[C@@H]1O[C@H](COP(=O)(O)OP(=O)(O)OP(=O)(O)O)[C@@H](O)[C@H]1O`, the EC50 in assay [2] came to 11 nM.
Consider `O=P(O)(O)OP(=O)(O)OP(=O)(O)OC[C@H]1O[C@@H](n2cnc3c(NC4CCCC4)ncnc32)[C@H](O)[C@@H]1O`, for which the EC50 in assay [2] came out at 1.4 nM.
With `CNc1ncnc2c1ncn2[C@H]1C[C@H](OP(=O)(O)O)[C@@H](COP(=O)(O)O)O1`, the IC50 in assay [3] came out at 227 nM; in assay [1], 508 nM.
Turning to `Nc1nc(C#Cc2ccccc2)nc2c1ncn2[C@@H]1O[C@H](COP(=O)(O)OP(=O)(O)OP(=O)(O)O)[C@@H](O)[C@H]1O`, the EC50 in assay [2] turned out to be 0.036 nM; in assay [4] it was 0.0254 nM.
For `CNc1nc(Cl)cc2c1ncn2[C@@H]1O[C@H](COP(=O)(O)OP(=O)(O)OP(=O)(O)O)[C@@H](O)[C@H]1O`, the EC50 in assay [2] amounted to 1.7 nM.
On to `O=c1[nH]c(=O)n([C@@H]2O[C@H](COP(=O)(O)OP(=O)(O)O)[C@@H](O)[C@H]2O)cc1I`, for which the EC50 in assay [2] was found to be 945 nM; in assay [4], 1870 nM.
Regarding `Nc1nc(Cl)nc2c1ncn2[C@H]1C[C@H](OP(=O)(O)O)[C@@H](COP(=O)(O)O)O1`, the half-maximal inhibitory concentration (IC50) in assay [1] came to 582 nM.
